We go through 3 molecules from paper PMC8774489, “[(WR)8WKβA]-Doxorubicin Conjugate: A Delivery System to Overcome Multi-Drug Resistance against Doxorubicin” (Cells, 2022).

In data set [1] the test system is MDA-MB-231 cells. The data set is described as follows: Differential nuclear and cytoplasmic extraction of Dox, HPLC. The note with it: 50 μM, 4 h exposure, MDA-MB-231, nuclear extract, HPLC at 490 nm. The class given is cell-based, human. As for the experimental part:
In order to confirm nuclear delivery of peptide-conjugated Dox, in addition to confocal microscopy, we performed a differential nuclear and cytoplasmic extraction. […] The cells were then pelleted at 2000 rpm for 5 min. After removing the supernatant, the cells were resuspended in Dounce buffer containing protease inhibitors. The cell suspension to be used was incubated on ice for 15 min before being spiked with cold 10% NP-40 and vortexed for 10 s. The suspension was centrifuged at 10,000 rpm for 10 min at 4 °C to pellet the nuclei. The supernatant was isolated for cytoplasmic extraction. The nuclear pellet was washed in cold PBS twice and centrifuged to remove the supernatant. The isolated nuclei were then lysed using RIPA buffer containing protease inhibitors. The nuclear and cytoplasmic extractions were analyzed by analytical HPLC to differentially quantify free Dox (or Dox released from the conjugates) and peptide-conjugate Dox using an Agilent Zorbax SB-C18 (4.6 × 150 mm) column. The column was equilibrated with 0.1% TFA-water (solvent A). The elution was performed at a flow rate of 1 mL/min using a gradient of acetonitrile from 0 to 35% in 50 min, with the absorbance measured at 490 nm.

Data set [2] can be described thus: in vitro. The note with it: human, 25% human serum.
Description: Human serum (250 μL) was diluted by adding sterile water (650 μL) and conjugate stock solution (100 μL) to give a sample with 25% human serum and 5 μM conjugate. The sample was kept at 37 °C in an incubator to mimic human body temperature. At regular time intervals, aliquots (100 μL) were taken and diluted with methanol (200 μL). After centrifugation (7000 RPM) of the mixture for 10 min, the supernatant was analyzed by analytical HPLC at 495 nm, and the major HPLC peaks were analyzed by mass spectrometry. The mobile phase used was acetonitrile/water with 0.1% TFA, with a gradient of 20–45% and a flow rate of 1 mL/min in 50 min. The percentage of intact conjugate and the release of the free drug were plotted against incubation time. The AUC obtained after each run was used to confirm the conjugate’s degradation, and t1/2 (the time needed to hydrolyze half of the initial conjugate in human serum) was calculated from the graph plotted as AUC versus incubation time.
Data set [3] concerns H9C2 cells. The data set is described as follows: Confocal microscopy uptake in H9C2 heart cells. The data set is classed as cell-based, rat. To be noted: H9C2, 5 µM (mixture: Dox 5 µM with [WR]9 5 or 10 µM), 24 h. As for the experimental part: (§1) MDA-MB-231, SK-OV-3, MES-SA/MX2, and H9C2 cells (7 × 10^4 cells/well) were seeded with a medium on a coverslip 24 h prior to the experiment in six well plates. After 24 h, the medium was changed with opti-MEM. The cells were treated with Dox and peptide-Dox conjugate (5 μM) in opti-MEM for 24 h. After 24 h incubation, the media were removed, and cells were washed three times with PBS in each well. Then, the cells were fixed with 3.7% formaldehyde for 10 min, followed by washing three times with PBS for 5 min (pH 7.6). DAPI (40 µL) for staining the nuclei was placed on a microscope slide, and it was covered with the coverslip with the cell-attached side facing down. The slides were left standing horizontally in a dark place with airflow to allow drying faster. The cells were photographed using Nikon Instruments A1 Confocal Laser Microscope Series (Nikon Instruments Inc, NY, USA) and NIS-Elements software (AR 4.30.02, 64 bit). The scan mode was selected as Galvano. The magnification and resolution were set at 40× and 1024, respectively.

The subject of data set [4] is MES-SA/MX2 cells. The data set is described as follows: Confocal microscopy internalization in MES-SA/MX2 cells. The note with it: MES-SA/MX2, 5 μM, 24 h. The class given is cell-based. As for the experimental part:
as §1

The test system of data set [5] is MES-SA/MX2 cells. In words: FACS cellular uptake with endocytosis inhibitors in MES-SA/MX2 cells. The class given is cell-based. To be noted: MES-SA/MX2, conjugate 5 µM, 3 h, flow cytometry, n = 3.
Data set [6] relates to CCRF-CEM cells. To be noted: conjugate 5 μM for 4 h at 37 °C, then drug-free medium, HPLC AUC.
Description: Intracellular hydrolysis of [(WR)8WKβA]-Dox and accumulation of free Dox and the peptide–Dox conjugate were determined in CCRF-CEM cells by HPLC analysis. Cells were grown with serum-free RPMI medium in 75 cm^2 culture flasks to ∼70–80% confluence (1.37 × 10^7 cells/mL). The medium was first replaced with fresh RPMI medium having [(WR)8WKβA]-Dox conjugate (5 μM). Then the cells were incubated for 4 h at 37 °C. After 4 h, the medium containing the conjugate was aspirated, and cells were washed three times with PBS before adding a fresh serum-free medium. The cells were first partitioned/transferred to culture plates (six wells) contained 1.37 × 10^7 cells per well in 5 mL of medium, then incubated for the indicated time. After incubation, the cells were collected using centrifugation. After centrifugation, the medium was removed by decantation. The cell pellets were washed with ice-cold PBS to remove any remaining medium. The cell pellets were then completely extracted with an equal volume of methanol, chloroform, and isopropanol mixture (4:3:1 v/v/v) and finally filtered through 0.2 μm filters. The relative amount of Dox and [(WR)8WKβA]-Dox concentrations in cell lysates were quantified by analytical HPLC using the water/acetonitrile solvent.
Data set [7] concerns SK-OV-3 cells. In words: Confocal microscopy uptake and retention in SK-OV-3 cells. The class given is cell-based, human. The note with it: SK-OV-3, 5 μM, 3 h then 24 h in media. On the procedure: as §1, with “The cells were treated with Dox and peptide-Dox conjugate (5 μM) in opti-MEM for 24 h.” left out
Data set [8] relates to MCF-7 cells. In words: In vitro cytotoxicity (MTS) assay in MCF-7 cells. The class given is cell-based, human. The note with it: for reduction of MCF-7 cell proliferation: mean n = 3. As for the experimental part:
(§2) The incubation was continued for 3 h.

Data set [9] relates to H9C2 myocardium cells. The note with it: 24 h, MTS, n = 3. On the procedure:
The cells were seeded in a complete growth medium 24 h prior to the experiment. […] The incubation was continued for 3 h.

The subject of data set [10] is MDA-MB-231 cells. In words: FACS cellular uptake with endocytosis inhibitors in MDA-MB-231 cells. The data set is classed as cell-based, human. The note with it: MDA-MB-231, conjugate 5 µM, 3 h, flow cytometry, n = 3. As for the experimental part: A flow cytometry study was conducted in the presence of endocytosis inhibitors such as nystatin, chlorpromazine, chloroquine, and methyl β-cyclodextrin to determine whether the cellular uptake for the peptide-Dox was endocytosis-dependent. MDA-MB-231 (5 × 10^5 cells/well) were seeded in the medium 24 h prior to the experiment in six well plates, and after 24 h the medium was changed with opti-MEM. […] The cells were then incubated with [(WR)8WKβA]-Dox conjugate (5 µM) in the presence of inhibitors for 3 h. After 3 h incubation, the media containing the compounds were removed. Next, the cells were digested with 0.05% trypsin/EDTA (0.53 mM) for 5 min to remove any artificial surface binding, centrifuged at 2500 RPM for 5 min with Fisher Scientific accuSpin Micro 17, and then collected as the precipitant. Then the cells were washed two times with PBS, resuspended in flow cytometry buffer, and transferred to the flow cytometry tubes through the 35 µm Strainer Mesh cap. Finally, the cells were analyzed by flow cytometry (FACSCalibur: Becton Dickinson, San Jose, CA, USA) using the Propidium Iodide channel and CellQuest software. The data presented were based on the mean fluorescence intensity for 10,000 cells collected. All assays were performed in triplicate.

Data set [11] has as its system SK-OV-3 cells. The class given is cell-based, human. To be noted: 5 µM, 72 h, MTS, mean n = 3. As for the experimental part: as §2
The subject of data set [12] is MDA-MB-231 cells. The data set is classed as cell-based, human. The note with it: MTS; for MDA-MB-231 cell viability: 5 µM, mean n = 3. As for the experimental part:
as §2

Data set [13] has as its system MES-SA/MX2 cells. The data set is described as follows: In vitro cytotoxicity (MTS) assay in Dox-resistant MES-SA/MX2 cells. The class given is cell-based. On the procedure: as §2
Data set [14] has as its system K562/ADR (human erythroleukemic cells). Further details: method as in PMID 11261883. To be noted: resistant K562/ADR cells; cited from earlier work. The text has this: Different linear CPPs such as penetratin [15], TAT [18], polyarginine, and maurocalcine have been conjugated with Dox.
For data set [15] the following is noted: molecular transporter of fluorescence-labeled phosphopeptide; cited from earlier work. The text has this:
Recently, we have reported amphiphilic cyclic CPPs composed of increasing numbers of W and R residues [WR]6–9, and compared their efficiency with the previously published cyclic [WR]5 in improving the cellular uptake of cell-impermeable compounds and their molecular transporter efficiency.

The mark [16] stands for this setting: chlorpromazine 30 μM, methyl-β-cyclodextrin 2.5 mM.

Like-named read-outs stand apart in the source and are kept apart here. Peptide text beside a SMILES is read from it.

In the case of `COc1cccc2c1C(=O)c1c(O)c3c(c(O)c1C2=O)C[C@@](O)(C(=O)COC(=O)CCCC(=O)NCCC(=O)NCCCC[C@@H]1NC(=O)[C@H](Cc2c[nH]c4ccccc24)NC(=O)[C@H](CCCNC(=N)N)NC(=O)[C@H](Cc2c[nH]c4ccccc24)NC(=O)[C@H](CCCNC(=N)N)NC(=O)[C@H](Cc2c[nH]c4ccccc24)NC(=O)[C@H](CCCNC(=N)N)NC(=O)[C@H](Cc2c[nH]c4ccccc24)NC(=O)[C@H](CCCNC(=N)N)NC(=O)[C@H](Cc2c[nH]c4ccccc24)NC(=O)[C@H](CCCNC(=N)N)NC(=O)[C@H](Cc2c[nH]c4ccccc24)NC(=O)[C@H](CCCNC(=N)N)NC(=O)[C@H](Cc2c[nH]c4ccccc24)NC(=O)[C@H](CCCNC(=N)N)NC(=O)[C@H](Cc2c[nH]c4ccccc24)NC(=O)[C@H](CCCNC(=N)N)NC(=O)[C@H](Cc2c[nH]c4ccccc24)NC1=O)C[C@@H]3O[C@H]1C[C@H](N)[C@H](O)[C@H](C)O1` [[(WR)8WKβA]-Dox conjugate] (HELM PEPTIDE1{K.W.R.W.R.W.R.W.R.W.R.W.R.W.R.W.R.W}|PEPTIDE2{[COc1cccc2c1C(=O)c1c(O)c3c(c(O)c1C2=O)C[C@@](O)(C(=O)COC(=O)CCCC(=O)[*:2])C[C@@H]3O[C@H]1C[C@H](N)[C@H](O)[C@H](C)O1].[bAla]}$PEPTIDE1,PEPTIDE2,1:R3-2:R2|PEPTIDE1,PEPTIDE1,1:R1-18:R2$$$V2.0), in [1], the “total concentration of Dox (conjugated and released) in the nucleus” value is listed as “higher than free Dox”. This molecule also gave a metabolised at 1 h, 5 µM in data set [2] of 7%. In data set [2], this molecule came in with a metabolised at 6 h, 5 µM of roughly 50%. The metabolised at 12 h, 5 µM in data set [2] was greater than 80%. Also, the amount remaining at 24 h, 5 µM in [2] came to 6%. The “uptake in heart cells by confocal microscopy” value in [3] is reported as “did not show any significant uptake”. The “internalization into resistant cells overexpressing P-gp” value in [4] is given as “internalized”. For the same molecule, the “uptake reduction in presence of chlorpromazine and methyl-β-cyclodextrin” value in data set [5] (setting [16]) is given as “statistically significant”. The “cellular uptake in presence of nystatin and chloroquine” value in [5] (nystatin 50 μg/mL, chloroquine 100 μM) was “not reduced significantly”; in [10] (nystatin 50 μg/mL, chloroquine 100 μM, 30 min preincubation) it was “not reduced significantly”. The “free Dox released intracellularly” value in [6] (within 12 h) is given as “More than 36%”; in data set [6] (within 72 h), “approximately 100%”. The “cellular uptake, retention and localization of Dox” value in [7] is “increased the cellular uptake and retention of Dox”. Moreover, the “reduction of MCF-7 cell proliferation” value in data set [8] (1 µM, 24 h) was determined as 28%; in data set [8] (1 µM, 72 h), 70%; in data set [8] (5 µM, 24 h), 55%; in data set [8] (10 µM, 24 h) it was 56%; in data set [8] (10 µM, 72 h), 77%. For the same molecule, the “cytotoxicity in rat H9C2 myocardium cells” value in data set [9] (10 µM) was “comparable to Dox”; in [9] (1 and 5 µM), “no significant cytotoxicity”. For the same molecule, the “cellular uptake in presence of chlorpromazine and methyl-β-cyclodextrin” value in [10] (setting [16]) is reported as “slight uptake reduction”.
Regarding `COc1cccc2c1C(=O)c1c(O)c3c(c(O)c1C2=O)C[C@@](O)(C(=O)CO)C[C@@H]3O[C@H]1C[C@H](N)[C@H](O)[C@H](C)O1` [Dox, Doxorubicin], in data set [3], the “uptake in heart cells by confocal microscopy” value is “high uptake”. The “reduction of SK-OV-3 cell viability” value in data set [11] was 35%. Besides, the values for the MDA-MB-231 cell viability in data set [12] (24 h) and in data set [12] (72 h) were 79% and 37%, respectively. In addition, the “inhibition of MDA-MB-231 cell viability / proliferation” value in data set [12] (5 μM, 72 h) is 63%. The “reduction of MCF-7 cell proliferation” value in [8] (5 µM, 24 h) is given as 21%; in data set [8] (5 µM, 72 h) it was 57%. Moreover, the “inhibition of MES-SA/MX2 cell viability / proliferation” value in data set [13] (5 μM, 72 h) is 15%. Also, the “efficiency of free Dox against MES-SA/MX2” value in data set [13] (1, 5, 10 or 20 µM) is given as “did not show significant efficiency”. In addition, the IC50 in data set [14] is 65 ± 7 µM.
For the molecule `N=C(N)NCCC[C@@H]1NC(=O)[C@H](Cc2c[nH]c3ccccc23)NC(=O)[C@H](CCCNC(=N)N)NC(=O)[C@H](Cc2c[nH]c3ccccc23)NC(=O)[C@H](CCCNC(=N)N)NC(=O)[C@H](Cc2c[nH]c3ccccc23)NC(=O)[C@H](CCCNC(=N)N)NC(=O)[C@H](Cc2c[nH]c3ccccc23)NC(=O)[C@H](CCCNC(=N)N)NC(=O)[C@H](Cc2c[nH]c3ccccc23)NC(=O)[C@H](CCCNC(=N)N)NC(=O)[C@H](Cc2c[nH]c3ccccc23)NC(=O)[C@H](CCCNC(=N)N)NC(=O)[C@H](Cc2c[nH]c3ccccc23)NC(=O)[C@H](CCCNC(=N)N)NC(=O)[C@H](Cc2c[nH]c3ccccc23)NC(=O)[C@H](CCCNC(=N)N)NC(=O)[C@H](Cc2c[nH]c3ccccc23)NC1=O` [[WR]9] (HELM PEPTIDE1{R.W.R.W.R.W.R.W.R.W.R.W.R.W.R.W.R.W}$PEPTIDE1,PEPTIDE1,1:R1-18:R2$$$V2.0), the “enhancement of cellular uptake of F′-GpYEEI” value in data set [15] is given as 20 fold. Besides, in [8] (different concentrations (1, 5, 10 μM)), the “effect of [WR]9 alone on MCF-7 cell survival” value is “no significant effect on cell survival”. In addition, in data set [13] (24 and 72 h), the “antiproliferative effect of [WR]9 alone on MES-SA/MX2” value is “no significant antiproliferative effect”.
